In patent US9682928B2 (NeuroPro Therapeutics, Inc., priority 2009, dated 2017):
Entries after “also recorded” stand apart in the source; their conditions may differ. Where two headings read alike, the source gives them in different places. Values belong to the molecule of their own block, whether it stands above or below them.

How the values were obtained:
Male CD-1 mice = test: Chung (SNL) neuropathic pain study in mice; assay type: in vivo, mouse; conditions: for Other overt toxicity: in vivo, ip; for Reversal of tactile hypersensitivity: mice, i.p., SNL
Description: Male CD-1 mice (25-35 g, Charles River) were used for all studies. Mice were housed in groups of five in Plexiglas chambers with food and water available ad libitum. All animals were maintained on a 12 hr light/dark cycle (lights on at 7:00 AM) in a temperature- and humidity-controlled animal colony. The health status of the animals used in this study was examined on arrival. Only animals in good health were acclimatized to laboratory conditions and used in the study. The acclimation period to the vivarium was a minimum of 7 days. All animal experiments were performed under an approved protocol in accordance with institutional guidelines and in accordance with the Guide for the Care and Use of Laboratory Animals as adopted and promulgated by the National Institutes of Health.
NTP has provided adequate amounts of NTP-2014 and NTP-2026 along with detailed instructions for preparing injection solutions. Gabapentin (Gallipot, St. Paul, Minn.) was dissolved in physiological saline. Injections were made using a 1-mL syringe with a 30-gauge needle at a volume of 10 ml/kg body weight. Animal body weights were measured prior to surgery and then on the morning of Day 7 (post-SNL testing). For i.p. drug administration, each mouse was firmly grasped by the nape of the neck and the tail was tucked between the last two fingers and palm of the technician's hand. The back of the mouse iwasarched slightly backwards exposing the abdominal region. The needle was inserted through the skin and abdominal musculature into the peritoneal cavity just off of the midline. Mice are immediately returned to the testing cage until behavioral testing.
NTP2026 (56, 100 and 180 mg/kg, i.p.); NTP 2014 (32, 56 and 100 mg/kg, i.p.); Gabapentin (100 mg/kg, i.p.); Vehicle Control (10% TPGS in benzoate buffer, i.p.).
SNL surgeries were performed based on the procedures described for rats (Kim and Chung, 1992) and modified for mice (Wang et al., 2001). Anesthesia was maintained with 0.5% halothane in O2 and body temperature was maintained using a heated water blanket. After surgical preparation of the mice, a 1-cm paraspinal incision was made at the level L4-S2. The L5 and L6 spinal nerves were exposed and tightly ligated using a 4-0 silk suture. The ligation was made distal to the dorsal root ganglion but before the fibers joined the sciatic nerve. The incisions were then closed, and animals are allowed to recover. […] Mechanical thresholds were determined by measuring the paw withdrawal threshold to probing with a series of calibrated von Frey filaments as described below.
Non-noxious sensory thresholds of the mice were determined by paw withdrawal […] to probing with a series of calibrated (0.02-2.34 gm on a logarithmic scale) von Frey filaments (“up and down” method) according to Chaplan et al. (1994) and analyzed using a Dixon (1980) nonparametric test. Results are expressed as the mean withdrawal thresholds. Baseline latencies/thresholds were determined prior to surgery, on the morning of Day 7, and then between 20-60 minutes post dosing with the test drugs. The post-drug time corresponds to the time of maximal activity for these compounds in the tail-flick assay.

[1] = molecular target: T1, α4β3γ2 GABAA receptor isoform (Homo sapiens, UniProt P18507+P28472+P48169); test: Whole-cell patch clamp, transfected HEK-293T cells; assay type: cell-based, rat or human
T1 construct: expressed in transfected cells; host or cells: HEK-293T, transient transfection
T1 sequence (P48169 36-554): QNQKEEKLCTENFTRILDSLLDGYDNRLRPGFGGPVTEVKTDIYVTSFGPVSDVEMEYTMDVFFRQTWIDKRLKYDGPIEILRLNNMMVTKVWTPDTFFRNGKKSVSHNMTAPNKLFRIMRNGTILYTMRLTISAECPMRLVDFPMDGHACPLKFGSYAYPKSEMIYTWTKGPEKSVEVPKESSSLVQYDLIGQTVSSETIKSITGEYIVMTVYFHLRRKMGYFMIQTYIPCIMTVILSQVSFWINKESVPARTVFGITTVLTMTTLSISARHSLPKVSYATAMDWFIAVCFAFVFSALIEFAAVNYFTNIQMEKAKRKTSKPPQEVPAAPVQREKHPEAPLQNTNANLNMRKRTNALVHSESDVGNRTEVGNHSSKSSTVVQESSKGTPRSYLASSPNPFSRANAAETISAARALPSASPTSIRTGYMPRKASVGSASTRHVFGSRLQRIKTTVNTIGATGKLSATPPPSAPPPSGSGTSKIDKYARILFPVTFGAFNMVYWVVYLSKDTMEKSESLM
T1 sequence (P28472 26-473): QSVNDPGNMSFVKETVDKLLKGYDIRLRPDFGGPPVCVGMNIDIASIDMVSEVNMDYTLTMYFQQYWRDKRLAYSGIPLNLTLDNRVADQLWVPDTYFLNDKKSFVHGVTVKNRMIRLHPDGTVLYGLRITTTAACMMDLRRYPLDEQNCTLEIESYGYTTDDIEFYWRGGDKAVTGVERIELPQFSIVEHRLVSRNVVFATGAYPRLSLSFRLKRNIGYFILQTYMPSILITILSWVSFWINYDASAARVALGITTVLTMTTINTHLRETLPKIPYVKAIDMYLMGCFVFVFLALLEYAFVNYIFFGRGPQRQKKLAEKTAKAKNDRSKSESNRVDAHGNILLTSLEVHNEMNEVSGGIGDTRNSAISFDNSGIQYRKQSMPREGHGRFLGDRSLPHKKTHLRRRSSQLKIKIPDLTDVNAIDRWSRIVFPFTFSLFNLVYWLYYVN
T1 sequence (P18507 40-475): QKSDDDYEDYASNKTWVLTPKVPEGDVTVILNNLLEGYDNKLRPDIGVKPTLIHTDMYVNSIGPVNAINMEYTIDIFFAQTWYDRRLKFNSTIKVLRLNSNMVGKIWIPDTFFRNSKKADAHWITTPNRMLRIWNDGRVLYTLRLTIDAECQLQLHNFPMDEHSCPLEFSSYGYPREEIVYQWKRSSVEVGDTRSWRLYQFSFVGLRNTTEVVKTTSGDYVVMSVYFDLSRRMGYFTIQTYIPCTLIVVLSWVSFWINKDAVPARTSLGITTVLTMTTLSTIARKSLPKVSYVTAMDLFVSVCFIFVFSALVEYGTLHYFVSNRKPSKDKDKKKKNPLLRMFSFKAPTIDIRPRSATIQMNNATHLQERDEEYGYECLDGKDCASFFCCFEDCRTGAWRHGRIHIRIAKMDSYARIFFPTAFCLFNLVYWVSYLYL
Procedure: The addition of GABA to […] activates the recombinant expressed GABAA receptors, creating an ion movement through the ion channel in the GABAA receptor. The electrical current generated by the movement of chloride ions into the cells can be quantified.
HEK-293T cells were transiently transfected with rat or human GABAA receptor subunits. Whole-cell patch clamp recording was performed at −50 mV unless otherwise indicated. Test compounds was diluted from a freshly made stock in DMSO, GABA was prepared from a frozen stock. For each experiment GABA or GABA+a test compound was applied for 5 seconds, and the electrical current generated by the movement of chloride ions into the cells was measured and recorded as a trace of current versus time.
Compounds described herein (e.g., NTP-2014) were tested at high and low GABA concentrations against multiple GABAA receptor isoforms (e.g., α1β3γ2, α2β3 γ2, α3β3γ2, α3β3γ2, α4β3γ2, α5β3γ2, α6β3γ2). […] NTP-2014 inhibits the currents in the parasynaptic α4 GABAA receptor isoform in GABAergic interneurons. […]

Sprague-Dawley rats = test: Kainic acid induced seizures in rats; assay type: in vivo, rat; parameters: key to Seizures Severity Mean ± SD (grade 0 to IV): seizure grade 0 = no response to IV = status epilepticus; conditions: for change in vivo at 20 µmol/kg / change in vivo at 100 mg/kg: Rattus norvegicus, 2 h; for change in vivo at 100 mg/kg: ip; for Reduction in seizure score / severity: bumetanide 100 mg/kg i.p. (274 umoles/kg); for Reduction in seizure severity / seizure score / Reduction in seizures / seizure activity: kainic acid 15 mg/kg, rat, 20 μmoles/kg (bumetanide 7.3 mg/kg i.p.)
Procedure: Formulation of kainic acid was performed by NTS as a stock solution by reconstituting kainic acid with (100%) saline that was stored at 4° C. Vehicle control received saline solution. […] The research investigators were blinded to the treatment groups.
Solutions were prepared fresh daily just prior to use; dosing of all 10 rats with any given compound occurred on a single day after preparing the dosing solution. […] Unused remaining dosing solutions were stored frozen.
Animals were maintained in a temperature- and light-controlled environment in accord with the principles and procedures of the National Institutes of Health Guidelines for Care and Use of Laboratory Animals. Seizures were induced in adult, male Sprague-Dawley rats (260-300 g) by injection of KA (15 mg/kg, i.p.). In addition, animals were injected with test compounds following kainic acid to determine the effects on protection from epilepsy. Animals were monitored behaviorally for seizures for 2 hours after injection.
Seizure activity was initially characterized as either yes (1) or no (0) within a 2 hour period following injection of KA. A seizure severity grade was assigned based on the maximal response achieved on a scale from 0 to IV as follows: 0, no response; I, single limb clonus and scratching; II, multiple limb clonus and staggering gait; […], limb clonus, tonic extension of limbs and falling; IV, continuous grade III seizures for longer than 30 min (status epilepticus).
The results were expressed as the mean±standard deviation (SD). The significance of difference in the epileptic data was analyzed using a one-way analysis of variance (ANOVA) followed by Fisher's post hoc test. Repeated-measures ANOVA were computed on the monitoring data and the significance of the difference among groups were evaluated by Fisher's post hoc test.
All groups were subjected to kainic acid.
The induction of seizures in rats with kainic acid was determined as either yes seizures (1) or no seizures (0).

[2] = KA 15 mg/kg i.p., 20 μmoles/kg IP
[3] = KA 15 mg/kg i.p., 20 μmoles/kg IP, 2 hours
[4] = group 11, bumetanide 100 mg/kg (274 umoles/kg)
[5] = 20 μmoles/kg IP, vs DMSO control

Structure (SMILES): CCCCN(CCCC)c1cc(C(=O)O)cc(S(N)(=O)=O)c1Oc1ccccc1 [NTP-2014, 3-Aminosulfonyl-5-N,N-dibutylamino-4-phenoxybenzoic acid]
Other overt toxicity (Male CD-1 mice; male, CD-1, mouse): high dose group (180 mg/kg). No other | Reversal of tactile hypersensitivity (Male CD-1 mice): dose-dependent reversal of tactile hypersensitivity; also recorded: effective analgesic effects; also recorded: Dose-dependent, very significant | Other overt toxicity (Male CD-1 mice; mouse): No other overt toxicity | IC50 ([1]; 100 μM GABA (FIG. 42), read-out: IC50, inhibition of α4β3γ2 GABAA receptor isoform): 16 µM | Effect on currents, α4 GABAA receptor isoform ([1]; 1, 10, 100 μM GABA): inhibiting currents; also recorded: inhibited by NTP-2014 at higher GABA concentrations, but unaffected at lower GABA concentrations; also recorded: inhibition of currents | EC50 ([1]; FIG. 41C, read-out: EC50 in α4 containing GABAA receptor isoforms): 20.2 µM | IC50 ([1]; read-out: IC50, receptors containing the α4 subunit): 10 to 30 µM

Effect on α4β3γ2 GABAA receptor isoform ([1]; up to a concentration of 100 μM, 100 μM GABA): no effect; also recorded: no-effect
Structure (SMILES): CCCCNc1cc(C(=O)O)cc(S(N)(=O)=O)c1Oc1ccccc1 [Bumetanide, reference compound]
Seizures Severity Mean ± SD (grade 0 to IV) (Sprague-Dawley rats; [2]): 0.7000 ± 0.8233 | Seizures Mean ± SD (1 = yes, 0 = no) (Sprague-Dawley rats; [3]): 0.5000 ± 0.5270 | change in vivo at 20 µmol/kg (Sprague-Dawley rats; 20 μmoles/kg IP, vs DMSO control, read-out: Percent reduction in Seizures): -44.4% | change in vivo at 20 µmol/kg (Sprague-Dawley rats; 20 μmoles/kg IP, vs DMSO control, read-out: Percent reduction in Seizures Severity): -70.8% | change in vivo at 100 mg/kg (Sprague-Dawley rats; read-out: Percent reduction in Seizures): -88.9% | change in vivo at 100 mg/kg (Sprague-Dawley rats; read-out: Percent reduction in Seizures Severity): -95.8% | Reduction in seizure score / severity (Sprague-Dawley rats): seizures (S); 96% | Reduction in seizure score / severity (Sprague-Dawley rats; listed as bumetanide): 95.8% | Reduction in seizures (Sprague-Dawley rats; bumetanide 100 mg/kg i.p., listed as bumetanide): 88.9% | Seizures Mean ± SD (1 = yes, 0 = no) (Sprague-Dawley rats; [4]): 0.1000 ± 0.3162 | Seizures Severity Mean ± SD (grade 0 to IV) (Sprague-Dawley rats; [4]): 0.1000 ± 0.3162 | Reduction in seizure severity / seizure score (Sprague-Dawley rats): seizures (NS); 71% | Reduction in seizures / seizure activity (Sprague-Dawley rats): 44% reduction in | Reduction in seizure severity / seizure score (Sprague-Dawley rats; listed as bumetanide): 70.8%

Structure (SMILES): CCCCNc1cc(C(=O)NN2CCOCC2)cc(S(N)(=O)=O)c1Oc1ccccc1 [NTP-2024, N-Morpholinyl 3-Aminosulfonyl-5-N-butylamino-4-phenoxybenzamide]
Percent reduction in Seizures (Sprague-Dawley rats; [5]): −88.9% | Percent reduction in Seizures Severity (Sprague-Dawley rats; [5]): −95.8% | Seizures Severity Mean ± SD (grade 0 to IV) (Sprague-Dawley rats; [2]): 0.1000 ± 0.3162 | Seizures Mean ± SD (1 = yes, 0 = no) (Sprague-Dawley rats; [3]): 0.1000 ± 0.3162 | Reduction in seizure severity / seizure score (Sprague-Dawley rats): 96% reduction in | Reduction in seizures / seizure activity (Sprague-Dawley rats): 89% reduction in

Structure (SMILES): CCCCNc1cc(C(=O)N(C)CCCN(C)C)cc(S(N)(=O)=O)c1Oc1ccccc1 [NTP-2026, N-(3-(Dimethylamino)propyl)-N-methyl 3-Aminosulfonyl-5-N-butylamino-4-phenoxybenzamide]
Reversal of tactile hypersensitivity (Male CD-1 mice): dose-dependent reversal of tactile hypersensitivity; also recorded: Dose-dependent, significant reversal of
